“Also recorded” adds a separate entry of the source.
Key:
[1] = test system: Male ICR mice; experiment: Catalepsy, ring-test (ring immobility); format: in vivo; settings: SR 141716A 10 mg/kg i.p. 5 min before 60 actuations of Δ^9-THC MDI
Method: (§1) Male ICR mice, weighing approximately 30 g, obtained from Harlan Laboratories (Indianapolis, Ind.) were provided a light cycle of approximately 6 a.m. to 6 p.m., and the temperature remained approximately 23° C. The mice were placed in the lab and allowed to accommodate to the surroundings the evening prior to testing. Animals were allowed food (Harlan Teklab, Madison, Wis.) and water ad libitum.
(§2) The exposure chamber was a modified, inverted, 1-liter separation funnel, housed under a fume hood, which allowed four mice to be simultaneously exposed to the aerosol. […]
(§3) A ring-test procedure was used to assess catalepsy. The percent of time during a five minute observation period that mice remained motionless, except for movements related to respiration, while stationed on a 5.7 cm diameter ring stand 23 cm above the laboratory bench, was assessed. Body temperature was assessed by inserting a thermometer probe (Traceable Digital, Control Co., Friendswood, Tex.) 2.5 cm into the rectum. Subjects were assessed for baseline tail-flick latency and rectal temperature prior to drug or vehicle administration. […] Locomotor activity, tail-flick latency, catalepsy, and hypothermia were assessed 5, 20, 40, and 60 minutes, respectively, after aerosol exposure. […]

[2] = test system: Male ICR mice; experiment: Antinociception, tail-flick test; format: in vivo
Method: as §1
The exposure chamber was a modified, inverted, 1-liter separation funnel, housed under a fume hood, which allowed four mice to be simultaneously exposed to the aerosol. Air was drawn through the chamber at a rate of approximately 60 ml/minute and filtered through glass wool (Corning Inc., Corning, N.Y.) and charcoal traps (SKC Inc., Eighty Four, Pa.) upon exiting the exposure chamber. Each actuation of Δ^9-THC or vehicle was delivered once per 5 s and the entire exposure period was 10 min. Mice were exposed to 20, 40 or 60 actuations of aerosolized Δ^9-THC or 60 actuations of vehicle.
Mice were placed in separate clear chambers (16.5 cm×25.5 cm×11.5 cm high) and assessed for hypomotility using a Digiscan Animal Activity Monitor (Omnitech Electronics Inc., Columbus, Ohio) in which the total number of photocell-light beam interruptions was counted. Antinociception was assessed in the tail-flick test (D'Amour, F. E., Smith, D. L., A method for determining loss of pain sensation, J Pharm Exp Ther, 72:74-79 (1941)) with heat intensity adjusted to give baseline latencies ranging from 2.0-4.0 seconds. A cut-off time of 10 seconds was used to limit tissue damage. Percent maximum possible effect (%MPE) was determined according to the following formula:
%MPE=[(test latency-baseline latency)/(cut-off-baseline latency)]*100
A ring-test procedure was used to assess catalepsy. The percent of time during a five minute observation period that mice remained motionless, except for movements related to respiration, while stationed on a 5.7 cm diameter ring stand 23 cm above the laboratory bench, was assessed. Body temperature was assessed by inserting a thermometer probe (Traceable Digital, Control Co., Friendswood, Tex.) 2.5 cm into the rectum. Subjects were assessed for baseline tail-flick latency and rectal temperature prior to drug or vehicle administration. […] Locomotor activity, tail-flick latency, catalepsy, and hypothermia were assessed 5, 20, 40, and 60 minutes, respectively, after aerosol exposure. An additional group of animals was given an i.v. injection of Δ^9-THC (0.3, 1, 3, or 10 mg/kg) or vehicle into a lateral tail vein and assessed in the tail-flick test 20 minutes later. All injections were given in a volume of 0.1 ml per 10 g animal weight.
The statistical analysis of the data was as follows. Data are represented by means±standard error (s.e.). Statistical analysis of the data was performed using Student t-tests (for the physiochemical comparisons of the aerosol), or ANOVA (for pharmacological studies), with significance set at p<0.05. Post hoc tests for significant ANOVAs included either Dunnett's test or Tukey/Kramer post-hoc analysis. […] A sample size of 6-8 mice was used in each group.

[3] = test system: mice; settings: cited from earlier work
[4] = test system: Male ICR mice; experiment: Locomotor activity (hypomotility), Digiscan Animal Activity Monitor; format: in vivo; settings: SR 141716A 10 mg/kg i.p. 5 min before 60 actuations of Δ^9-THC MDI
Method: Mice were placed in separate clear chambers (16.5 cm×25.5 cm×11.5 cm high) and assessed for hypomotility using a Digiscan Animal Activity Monitor (Omnitech Electronics Inc., Columbus, Ohio) in which the total number of photocell-light beam interruptions was counted. Antinociception was assessed in the tail-flick test (D'Amour, F. E., Smith, D. L., A method for determining loss of pain sensation, J Pharm Exp Ther, 72:74-79 (1941)) with heat intensity adjusted to give baseline latencies ranging from 2.0-4.0 seconds. […] Percent maximum possible effect (%MPE) was determined according to the following formula:
A ring-test procedure was used to assess catalepsy. […] Body temperature was assessed by inserting a thermometer probe (Traceable Digital, Control Co., Friendswood, Tex.) 2.5 cm into the rectum. […]

[5] = test system: Male ICR mice; experiment: Hypothermia, rectal temperature; format: in vivo; settings: SR 141716A 10 mg/kg i.p. 5 min before 60 actuations of Δ^9-THC MDI
Method: as §1, §2, §3

[6] = test system: Spasticity and pain due to spinal cord injury; settings: oral THC (5 mg) or codeine (50 mg); 1 patient; cited from earlier work
[7] = test system: Nausea and emesis due to Cancer chemotherapy; settings: oral 15 mg THC, 10 mg prochloperzine or placebo; 116 patients; cited from earlier work

In the case of Cc1c(C(=O)NN2CCCCC2)nn(-c2ccc(Cl)cc2Cl)c1-c1ccc(Cl)cc1 [SR 141716A], the “antagonism of Δ^9-THC-induced catalepsy” value [1] is reported as “significantly blocked; also recorded: significantly antagonized”, the “antagonism of Δ^9-THC-induced antinociception” value ([2]; SR 141716A 10 mg/kg i.p. 5 min before 60 actuations of Δ^9-THC MDI) is reported as “significantly blocked; also recorded: significantly antagonized” and the “AD50 (95% C.L.) in antagonizing the antinociceptive effects of inhaled Δ^9-THC” value ([2]; i.p. pretreatment, exposure to Δ^9-THC) is reported as 0.8 mg/kg. For the same compound, the “ED50 in antagonizing antinociceptive effects” value ([3]; exposure to marijuana smoke (Lichtman et al., 2001)) was 0.6 mg/kg, the “antagonism of effects of marijuana smoke” value ([3]; mice exposed to marijuana smoke (Lichtman et al., 2001)) was “only effectively antagonized the antinociceptive response” and the “antagonism of Δ^9-THC-induced hypomotility” value [4] was “significantly blocked; also recorded: significantly antagonized”. For the same compound, the “antagonism of Δ^9-THC-induced hypothermia” value [5] was “significantly blocked; also recorded: not completely antagonized; also recorded: significantly antagonized”.
In the case of COc1ccc2c3c1O[C@H]1[C@@H](O)C=C[C@H]4[C@@H](C2)N(C)CC[C@@]341 [codeine], the effect on spasticity [6] is given as “codeine did not”.
In the case of CN1CCN(CCCN2c3ccccc3Sc3ccc(Cl)cc32)CC1 [prochlorperazine], the “antiemetic effect compared with placebo” value [7] is listed as “each greater than placebo;” and the “antiemetic effects, THC vs prochlorperazine” value [7] is listed as “Equal antiemetic effects”.

— patent US6713048B2, “Δ9 tetrahydrocannabinol (Δ9 THC) solution metered dose inhalers and methods of use” (Virginia Commonwealth University, priority 1998, dated 2004)
